From patent publication US20230056593A1, “ARGININE ASPARTATE-CONTAINING COMPOSITION FOR SUPPRESSING OLD PERSON SMELL” (HUMEDIX CO., LTD., priority 2020, published 2023)

Key:
Procollagen = assay: Collagen synthesis ability in human skin fibroblasts (Type I Procollagen C-Peptide EIA kit); assay type: cell-based
Protocol: Human skin fibroblasts were cultured at a concentration of 1×10^4/well. The cells were treated with each sample, and the amount of synthesized collagen was measured to evaluate the collagen synthesis ability. The cells were treated with adenosine at a concentration of 50 ppm as a positive control and arginine aspartate at a concentration of 10, 20 and 40 ppm. Collagen quantification was performed using a Type I Procollagen C-Peptide EIA kit (Takara, Japan). A group in which the cells were not treated with sample was used as a control group (CON).

MMP-1 = MMP-1 expression level in human skin fibroblasts (PCR); assay type: cell-based
Protocol: Human skin fibroblasts were cultured at a concentration of 1×10^4/well. The cells were treated with arginine aspartate for each concentration, and the MMP-1 expression level was measured using a PCR device to evaluate the ability of arginine aspartate to inhibit MMP-1. A group in which the cells were not treated with the sample was used as a control group (CON), and a group in which the cells were treated with 50 ppm of adenosine was used as a positive control group.

mushroom tyrosinase = assay: Whitening effect: mushroom tyrosinase activity (absorbance at 490 nm); assay type: biochemical; settings: for Tyrosinase activity (% of control): 37° C. for 10 minutes, pH 6.8
Protocol: After adding 200 μL of 0.1M phosphate buffer (pH 6.8) to the Eppen tube, 20 μL of each sample solution diluted at each concentration was added. Then, 20 μL of mushroom tyrosinase (2,000 units/μL) and 200 μL of 0.3% tyrosine were added in order, and then reacted at 37° C. for 10 minutes. After 200 μL of this solution was transferred to a 96-well plate, absorbance was measured at 490 nm using an ELISA reader. 100 ppm arbutin was used as a positive control.

TNF-α = assay: Anti-inflammatory effect: TNF-α expression in UVB-stimulated HaCaT cells (RT-PCR); assay type: cell-based; settings: UVB stimulation
Protocol: HaCaT cells were seeded in a 12-well plate by 1×10^5 cells/well, and after 24 hours, they were replaced with a basal medium and starvated for 6 hours. After that, the medium was replaced with the basal medium containing the sample and the cells were incubated for 24 hours. After removal of the medium, UVB stimulation was applied, and the basal medium was added and the cells were cultured for 24 hours. The medium was completely removed and the cells were washed twice with PBS. The cells were disrupted using TRIsure to recover RNA, and then RT-PCR was performed to amplify TNF-α. Electrophoresis was performed on an agarose gel and the expression rate was measured using the Gel Documentation system. 200 μM dexamethasone was used as a positive control.

[1] = Removal of 2-nonenal by arginine aspartate (HPLC over time); settings: 0.05 wt % 2-nonenal treated with 2.5 wt % arginine aspartate, room temperature, after 20 hours
Protocol: The ability of the arginine aspartate of Formula (I) according to the present invention to remove 2-nonenal was evaluated.
2-Nonenal was dissolved at a concentration of 0.1 wt % (1000 ppm) in 50 wt % ethanol aqueous solution containing 0.5 wt % Tween 80. Arginine aspartate was dissolved at a concentration of 5 wt % (50000 ppm) in a 50 wt % ethanol aqueous solution containing 0.5 wt % Tween 80.
The two solutions were mixed in a 1:1 ratio by weight to make a mixed solution. The mixed solution was left at room temperature and the change in the amount of 2-nonenal was analyzed by HPLC over time. That is, the change in the amount of 2-nonenal over time was analyzed by treating 0.05 wt % 2-nonenal with arginine aspartate at a concentration of 2.5 wt %.
Further, the 2-nonenal solution prepared above was diluted two-fold with a 50 wt % ethanol aqueous solution containing 0.5 wt % Tween 80 and the diluted solution was left at room temperature to analyze the change in the amount of 2-nonenal over time by HPLC. That is, the change in the amount of 2-nonenal over time was analyzed in a condition of 0.05 wt % of 2-nonenal untreated with arginine aspartate.

**Q.** For `Nc1ncnc2c1ncn2[C@@H]1O[C@H](CO)[C@@H](O)[C@H]1O` [Adenosine, adenosine, reference compound], which “Type I procollagen C-peptide level (% of control)” value (Procollagen; 50 ppm) is on record?
**A.** 142.2 % of control

**Q.** And the “MMP-1 gene expression level (% of control)” value (MMP-1; 50 ppm)?
**A.** 73.9 % of control

**Q.** Which “Tyrosinase activity (% of control)” value (mushroom tyrosinase; 10 ppm) does the source give for `OC[C@H]1O[C@@H](Oc2ccc(O)cc2)[C@H](O)[C@@H](O)[C@@H]1O` [Arbutin, arbutin, reference compound] here?
**A.** 93.6 % of control

**Q.** And the “Tyrosinase activity (% of control)” value (mushroom tyrosinase; 100 ppm)?
**A.** 76.7 % of control

**Q.** Which “TNF-α gene expression level (% of control)” value (TNF-α; 50 ppm (table)) does the source give for `C[C@@H]1C[C@H]2[C@@H]3CCC4=CC(=O)C=C[C@]4(C)[C@@]3(F)[C@@H](O)C[C@]2(C)[C@@]1(O)C(=O)CO` [Dexamethasone, dexamethasone, reference compound] here?
**A.** 66.9 % of control

**Q.** With arginine aspartate as the compound, how does the “TNF-α gene expression level (% of control)” value (TNF-α; 10 ppm) read?
**A.** 76.0 % of control

**Q.** And the “TNF-α gene expression level (% of control)” value (TNF-α; 20 ppm)?
**A.** 72.9 % of control

**Q.** What about the “TNF-α gene expression level (% of control)” value (TNF-α; 40 ppm) of the same compound?
**A.** 72.6 % of control

**Q.** And the “decrease in TNF-α expression level” value (TNF-α; 40 ppm)?
**A.** 37.4%

**Q.** What about the “collagen synthesis compared to the control group (CON)” value (Procollagen; 10, 20 and 40 ppm) of the same compound?
**A.** increase in collagen synthesis

**Q.** What about the “Type I procollagen C-peptide level (% of control)” value (Procollagen; 10 ppm) of the same compound?
**A.** 123.6 % of control

**Q.** What about the “Type I procollagen C-peptide level (% of control)” value (Procollagen; 20 ppm) of the same compound?
**A.** 133.0 % of control

**Q.** What about the “Type I procollagen C-peptide level (% of control)” value (Procollagen; 40 ppm) of the same compound?
**A.** 136.8 % of control

**Q.** What about the “amount of 2-nonenal decreased” value [1] of the same compound?
**A.** 74%

**Q.** What about the “amount of 2-nonenal left compared to the initial 100% by weight” value [1] of the same compound?
**A.** 26 % by weight

**Q.** What about the “MMP-1 gene expression level (% of control)” value (MMP-1; 10 ppm) of the same compound?
**A.** 86.7 % of control

**Q.** And the “MMP-1 gene expression level (% of control)” value (MMP-1; 20 ppm)?
**A.** 82.2 % of control

**Q.** And the “MMP-1 gene expression level (% of control)” value (MMP-1; 40 ppm)?
**A.** 76.6 % of control

**Q.** And the “inhibitory effect on MMP-1” value (MMP-1; 40 ppm)?
**A.** 23.4%

**Q.** And the “Tyrosinase activity (% of control)” value (mushroom tyrosinase; 10 ppm)?
**A.** 72.5 % of control

**Q.** What about the “inhibition in tyrosinase activity” value (mushroom tyrosinase; 100 ppm) of the same compound?
**A.** 28.3%

**Q.** What about the “Tyrosinase activity (% of control)” value (mushroom tyrosinase; 100 ppm) of the same compound?
**A.** 71.7 % of control
